Measured values as given in patent publication US20240293413A1, “COMPOUND AND METHOD FOR TREATING CHEMOTHERAPY-RELATED GASTROINTESTINAL SIDE EFFECTS” (ONQUALITY PHARMACEUTICALS CHINA LTD., priority 2021, published 2024).

Key:
Format in all cases: in vivo
[1] = system: diarrhea caused by a chemotherapeutic agent in Balb/c mice; assay: Examples 382-405 (Table 7): various administration modes of the CDK inhibitor, relief of diarrhea caused by a chemotherapeutic agent; settings: for Relative remission rate of oral administration: CDK inhibitor oral 150 mg/kg single
Text: Balb/c mice were fed for 1 week, and then divided into groups. The experiment was divided into a control group, a chemotherapeutic agent group, CDK inhibitor groups (including an oral administration group of a CDK inhibitor, an intraperitoneal injection group of a CDK inhibitor, an intramuscular injection group of a CDK inhibitor, a local administration group of a CDK inhibitor), each of which comprised 10 mice, to perform the administration experiment, for which the administration dosage, mode, time and frequency were shown in Table 7. The control group: being administered with the same solvent as that used in the CDK inhibitor group (the time and mode were shown in Table 7), and then being injected/intragastrically administered with the same solvent as that used in the chemotherapeutic agent group (the administration mode was shown in Table 7): the chemotherapeutic agent group: being administered with the same solvent as that used in the CDK inhibitor group (the time and mode were shown in Table 7), and then being injected/intragastrically administered with the chemotherapeutic agent (the type, administration mode and dosage were shown in Table 7): the oral administration group of the CDK inhibitor: being intragastrically administered with the CDK inhibitor (the time was shown in Table 7), and then being administered with the chemotherapeutic agent (the mode and dosage were shown in Table 7): the intraperitoneal injection group of the CDK inhibitor: being intraperitoneally injected with the CDK inhibitor (the time was shown in Table 7), and then being administered with the chemotherapeutic agent (the mode and dosage were shown in Table 7): the intramuscular injection group of the CDK inhibitor: being intramuscularly injected with the CDK inhibitor (the time was shown in Table 7), and then being administered with the chemotherapeutic agent (the mode and dosage were shown in Table 7); and the local administration group of the CDK inhibitor: the hair on the abdomen of mice was shaved (about 2 cm*2 cm), being applied with the CDK inhibitor (the time was shown in Table 7), and then being administered with the chemotherapeutic agent (the mode and dosage were shown in Table 7).
The diarrhea grading of mice was observed and recorded every day.

[2] = system: diarrhea caused by a chemotherapeutic agent in Balb/c mice; assay: Examples 343-381 (Table 6): oral versus intravenous CDK inhibitor, relief of diarrhea caused by a chemotherapeutic agent;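 also: percent of treated mice whose diarrhea grade fell below chemotherapy-group average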
Method in brief: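 Balb/c mice (10 per group) received the CDK inhibitor orally or by tail-vein injection, or vehicle, followed by a chemotherapeutic agent or its solvent. Diarrhea grade was scored daily.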

[3] = system: Chemotherapeutic agent-caused diarrhea models of Balb/c mice; assay: Examples 1-229 (Table 3): oral CDK inhibitor, relief of diarrhea caused by a chemotherapeutic agent;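 also: percent of treated mice whose diarrhea grade fell below chemotherapy-group average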

CCN1CCN(Cc2ccc(Nc3ncc(F)c(-c4cc(F)c5nc(C)n(C(C)C)c5c4)n3)nc2)CC1 [Abemaciclib]
Relative remission rate of other administration mode ([1]; Example 394, Carboplatin (CBP) intravenous injection 120 mg/kg single, CDK inhibitor intramuscular injection 150 mg/kg single, 8 h before, cycle 10 days): 20%
Relative remission rate of oral administration ([1]; Example 394, Carboplatin (CBP) intravenous injection 120 mg/kg single, 8 h before, cycle 10 days): 60%
Relative remission rate of other administration mode ([1]; Example 396, Gemcitabine (GEM) intraperitoneal injection 120 mg/kg single, CDK inhibitor intraperitoneal injection 150 mg/kg single, 0.5 h before, cycle 8 days): 10%
Relative remission rate of oral administration ([1]; Example 396, Gemcitabine (GEM) intraperitoneal injection 120 mg/kg single, 0.5 h before, cycle 8 days): 40%
Relative remission rate of other administration mode ([1]; Example 397, Gemcitabine (GEM) intraperitoneal injection 120 mg/kg single, CDK inhibitor intraperitoneal injection 150 mg/kg single, 4 h before, cycle 8 days): 20%
Relative remission rate of oral administration ([1]; Example 397, Gemcitabine (GEM) intraperitoneal injection 120 mg/kg single, 4 h before, cycle 8 days): 50%
Relative remission rate of other administration mode ([1]; Example 398, Gemcitabine (GEM) intraperitoneal injection 120 mg/kg single, CDK inhibitor intraperitoneal injection 150 mg/kg single, 8 h before, cycle 8 days): 30%
Relative remission rate of oral administration ([1]; Example 398, Gemcitabine (GEM) intraperitoneal injection 120 mg/kg single, 8 h before, cycle 8 days): 60%
Relative remission rate of other administration mode ([1]; Example 399, Gemcitabine (GEM) intraperitoneal injection 120 mg/kg single, CDK inhibitor intraperitoneal injection 150 mg/kg single, 12 h before, cycle 8 days): 30%
Relative remission rate of oral administration ([1]; Example 399, Gemcitabine (GEM) intraperitoneal injection 120 mg/kg single, 12 h before, cycle 8 days): 60%
Relative remission rate of other administration mode ([1]; Example 400, Gemcitabine (GEM) intraperitoneal injection 120 mg/kg single, CDK inhibitor intraperitoneal injection 150 mg/kg single, 24 h before, cycle 8 days): 10%
Relative remission rate of oral administration ([1]; Example 400, Gemcitabine (GEM) intraperitoneal injection 120 mg/kg single, 24 h before, cycle 8 days): 40%
Relative remission rate ([2]; Example 364, Carboplatin (CBP) intramuscular injection 150 mg/kg single, CDK inhibitor intravenous injection 150 mg/kg single, 8 h before, cycle 10 days): 20%
Relative remission rate ([2]; Example 364, Carboplatin (CBP) intramuscular injection 150 mg/kg single, CDK inhibitor oral 150 mg/kg single, 8 h before, cycle 10 days): 50%
Relative remission rate ([2]; Example 371, Gemcitabine (GEM) intraperitoneal injection 120 mg/kg single, CDK inhibitor intravenous injection 150 mg/kg single, 0.5 h before, cycle 8 days): 10%
Relative remission rate ([2]; Example 371, Gemcitabine (GEM) intraperitoneal injection 120 mg/kg single, CDK inhibitor oral 150 mg/kg single, 0.5 h before, cycle 8 days): 30%
Relative remission rate ([2]; Example 372, Gemcitabine (GEM) intraperitoneal injection 120 mg/kg single, CDK inhibitor intravenous injection 150 mg/kg single, 4 h before, cycle 8 days): 10%
Relative remission rate ([2]; Example 372, Gemcitabine (GEM) intraperitoneal injection 120 mg/kg single, CDK inhibitor oral 150 mg/kg single, 4 h before, cycle 8 days): 30%
Relative remission rate ([2]; Example 373, Gemcitabine (GEM) intraperitoneal injection 120 mg/kg single, CDK inhibitor intravenous injection 150 mg/kg single, 8 h before, cycle 8 days): 20%
Relative remission rate ([2]; Example 373, Gemcitabine (GEM) intraperitoneal injection 120 mg/kg single, CDK inhibitor oral 150 mg/kg single, 8 h before, cycle 8 days): 50%
Relative remission rate ([2]; Example 374, Gemcitabine (GEM) intraperitoneal injection 120 mg/kg single, CDK inhibitor intravenous injection 150 mg/kg single, 12 h before, cycle 8 days): 20%
Relative remission rate ([2]; Example 374, Gemcitabine (GEM) intraperitoneal injection 120 mg/kg single, CDK inhibitor oral 150 mg/kg single, 12 h before, cycle 8 days): 50%
Relative remission rate ([2]; Example 375, Gemcitabine (GEM) intraperitoneal injection 120 mg/kg single, CDK inhibitor intravenous injection 150 mg/kg single, 24 h before, cycle 8 days): 10%
Relative remission rate ([2]; Example 375, Gemcitabine (GEM) intraperitoneal injection 120 mg/kg single, CDK inhibitor oral 150 mg/kg single, 24 h before, cycle 8 days): 40%
Relative remission rate (%) ([3]; Example 48, Fluorouracil (5-Fu) intramuscular injection 125 mg/kg single, CDK inhibitor oral 150 mg/kg single 8 h before, cycle 10 days): 40%
Relative remission rate (%) ([3]; Example 89, Irinotecan (CPT-11) intraperitoneal injection 240 mg/kg single, CDK inhibitor oral 150 mg/kg single 0.5 h before, cycle 7 days): 30%
Relative remission rate (%) ([3]; Example 90, Irinotecan (CPT-11) intraperitoneal injection 240 mg/kg single, CDK inhibitor oral 150 mg/kg single 1 h before, cycle 7 days): 30%
Relative remission rate (%) ([3]; Example 91, Irinotecan (CPT-11) intraperitoneal injection 240 mg/kg single, CDK inhibitor oral 150 mg/kg single 2 h before, cycle 7 days): 40%
Relative remission rate (%) ([3]; Example 92, Irinotecan (CPT-11) intraperitoneal injection 240 mg/kg single, CDK inhibitor oral 150 mg/kg single 3 h before, cycle 7 days): 30%
Relative remission rate (%) ([3]; Example 93, Irinotecan (CPT-11) intraperitoneal injection 240 mg/kg single, CDK inhibitor oral 150 mg/kg single 4 h before, cycle 7 days): 50%
Relative remission rate (%) ([3]; Example 94, Irinotecan (CPT-11) intraperitoneal injection 240 mg/kg single, CDK inhibitor oral 150 mg/kg single 5 h before, cycle 7 days): 60%
Relative remission rate (%) ([3]; Example 95, Irinotecan (CPT-11) intraperitoneal injection 240 mg/kg single, CDK inhibitor oral 150 mg/kg single 6 h before, cycle 7 days): 60%
Relative remission rate (%) ([3]; Example 96, Irinotecan (CPT-11) intraperitoneal injection 240 mg/kg single, CDK inhibitor oral 150 mg/kg single 7 h before, cycle 7 days): 60%
Relative remission rate (%) ([3]; Example 97, Irinotecan (CPT-11) intraperitoneal injection 240 mg/kg single, CDK inhibitor oral 150 mg/kg single 8 h before, cycle 7 days): 70%
Relative remission rate (%) ([3]; Example 98, Irinotecan (CPT-11) intraperitoneal injection 240 mg/kg single, CDK inhibitor oral 150 mg/kg single 9 h before, cycle 7 days): 50%
Relative remission rate (%) ([3]; Example 99, Irinotecan (CPT-11) intraperitoneal injection 240 mg/kg single, CDK inhibitor oral 12.5 mg/kg single 10 h before, cycle 7 days): 20%
Relative remission rate (%) ([3]; Example 100, Irinotecan (CPT-11) intraperitoneal injection 240 mg/kg single, CDK inhibitor oral 25 mg/kg single 10 h before, cycle 7 days): 40%
Relative remission rate (%) ([3]; Example 101, Irinotecan (CPT-11) intraperitoneal injection 240 mg/kg single, CDK inhibitor oral 50 mg/kg single 10 h before, cycle 7 days): 80%
Relative remission rate (%) ([3]; Example 102, Irinotecan (CPT-11) intraperitoneal injection 240 mg/kg single, CDK inhibitor oral 100 mg/kg single 10 h before, cycle 7 days): 50%
Relative remission rate (%) ([3]; Example 103, Irinotecan (CPT-11) intraperitoneal injection 240 mg/kg single, CDK inhibitor oral 150 mg/kg single 10 h before, cycle 7 days): 70%
Relative remission rate (%) ([3]; Example 104, Irinotecan (CPT-11) intraperitoneal injection 240 mg/kg single, CDK inhibitor oral 100 mg/kg single 11 h before, cycle 7 days): 80%
Relative remission rate (%) ([3]; Example 105, Irinotecan (CPT-11) intraperitoneal injection 240 mg/kg single, CDK inhibitor oral 100 mg/kg single 12 h before, cycle 7 days): 80%
Relative remission rate (%) ([3]; Example 106, Irinotecan (CPT-11) intraperitoneal injection 240 mg/kg single, CDK inhibitor oral 100 mg/kg single 14 h before, cycle 7 days): 90%
Relative remission rate (%) ([3]; Example 107, Irinotecan (CPT-11) intraperitoneal injection 240 mg/kg single, CDK inhibitor oral 100 mg/kg single 16 h before, cycle 7 days): 70%
Relative remission rate (%) ([3]; Example 108, Irinotecan (CPT-11) intraperitoneal injection 240 mg/kg single, CDK inhibitor oral 100 mg/kg single 18 h before, cycle 7 days): 70%
Relative remission rate (%) ([3]; Example 109, Irinotecan (CPT-11) intraperitoneal injection 240 mg/kg single, CDK inhibitor oral 100 mg/kg single 20 h before, cycle 7 days): 40%
Relative remission rate (%) ([3]; Example 110, Irinotecan (CPT-11) intraperitoneal injection 240 mg/kg single, CDK inhibitor oral 100 mg/kg single 22 h before, cycle 7 days): 40%
Relative remission rate (%) ([3]; Example 111, Irinotecan (CPT-11) intraperitoneal injection 240 mg/kg single, CDK inhibitor oral 100 mg/kg single 24 h before, cycle 7 days): 40%
Relative remission rate (%) ([3]; Example 112, Irinotecan (CPT-11) intraperitoneal injection 240 mg/kg single, CDK inhibitor oral 100 mg/kg single 48 h before, cycle 7 days): 0%
Relative remission rate (%) ([3]; Example 226, Topotecan intraperitoneal injection 10 mg/kg single, CDK inhibitor oral 150 mg/kg single, 6 h before, 14 days): 40%
